From a melting point compilation (Tetko et al.; mined from patent text by program, amines drawn as free bases though some values may be those of a salt)

Compound	melting point [°C]
CCCCOC(=O)Cc1ccc(N2CCN(CCc3cc(C(C)(C)C)c(O)c(C(C)(C)C)c3)CC2)cc1	103 to 105
CSC(=NC#N)Nc1ccc(C#N)cc1	220 to 225
CCCCCCCOc1ccc(C(=O)Cl)cc1OCCCCCCC	57 to 58
CCOC(=O)c1cn(C2COC2)c2c(OC)c(F)c(F)cc2c1=O	195 to 198
OCC1OC(SCCCc2ccccc2)C(O)C(O)C1O (stereo not given)	122 to 123
Cn1c2c(ccc1=O)C(=O)CCC2	174 to 176
O=C(C(=O)C12CC3CC(CC(C3)C1)C2)c1ccc(OC(F)F)cc1	118 to 120
COc1ccc(C(=O)N2CCN(c3ccc([N+](=O)[O-])c(C=CC(=O)O)c3)CC2)cc1OC	197 to 202
CC(C)N1C(N)=NS(=O)(=O)NC1Oc1ccc([N+](=O)[O-])cc1 (stereo not given)	132 to 136
CCOC(=O)C(C)(C)Oc1cc2c(cc1C)OC1(CC(C)(C)c3cc(O)c(C)cc3O1)CC2(C)C (single isomer, unassigned; (-))	165 to 166
NCc1cccc2nnsc12	136 to 139
CCC(=O)Nc1ccc(-c2ccc(C(=O)N3CCN4CCC3CC4)o2)cc1	264
O=C(O)c1cn(CC2CCCCC2)c2cc(Cl)ccc12	170 to 172
CC(C)(CO)NC(N)=S	127 to 129
COc1cc(C)c([N+](=O)[O-])cc1F	95 to 95.5
CC1(C)COP(=O)(Cc2ccc(N)cc2)OC1	152 to 153
COC1(OC)CN(c2c(F)cc3c(=O)c(C(=O)O)cn(C4CC4)c3c2F)CC1C (stereo not given)	214 to 216
COc1nc2cc(Cl)c(Cl)c(N(CCO)S(C)(=O)=O)c2nc1OC	240 to 242
NC(=O)N1CCCC(CC(=O)c2ccc(F)cc2)C1 (stereo not given)	136 to 138
COC(=O)CCn1c(=O)n(CCCCCN2CCN(c3cccc(C(F)(F)F)c3)CC2)c(=O)c2cscc21	99.5 to 101

Compound	melting point [°C]
O=C1N(CCCCCl)CCN1c1ccccc1	47.5 to 49
CCOC(=O)c1c2ccc(CC(=O)NOC(=O)NC)ccc-2c(C(=O)OCC)c1N	222 to 224
CC(C)C1(C)N=C(c2c(C(=O)O)ccc3c2nnn3C)NC1=O (stereo not given)	250 to 254
COc1cccc(C=CC(=O)NC2CCNC(=O)C2)c1OC (stereo not given)	164 to 166
CC(C)(/C=C/c1ccc(C(=O)O)cc1)c1ccc2c(c1)C(C)(C)CCC2(C)C	219 to 220
CN(C)C(=O)CCCOC(=O)C(OCc1ccc(-c2ccc(Cl)cc2)cc1)(C(F)(F)F)C(F)(F)F	54 to 55
O=C1C=C2CCCCC2N1c1ccc(O)c(Cl)c1 (stereo not given)	216
CCc1ccc2c(c1)C(c1ccccc1F)=NCC1CN=C(C)N21 (stereo not given)	152 to 154
CCOc1ncnc(OC)c1NC(N)=S	186 to 187
COC(=NC#N)NCc1ccc(-c2csc(N=C(N)N)n2)o1	205 to 206
CS(=O)(=O)Cc1cc(C(=O)C=NCCCCCCN=CC(=O)c2ccc(OCc3ccccc3)c(CS(C)(=O)=O)c2)ccc1OCc1ccccc1	162 to 163
CC(C)Oc1ccc(-c2nc3n(c2-c2ccncc2)CCC3)cc1	148 to 150
COCCCN1C[C@H](O)c2cc(S(N)(=O)=O)sc2S1(=O)=O	109 to 111
O=[N+]([O-])CS(=O)(=O)c1ccccc1F	59
Clc1cc(Cl)c(CBr)c(Cl)c1	51 to 52
O=C(O)CCCCCCCCc1ccc(Cl)cc1	73 to 75
CCCc1nc2c(N)nc(C)c(C)c2n1CCCS(C)(=O)=O	154 to 155
COc1ccc(C23CCCC2(c2ccc(OC)cc2)C3)cc1 (stereo not given)	92 to 93
CC1=CC(OC(=O)c2nc[nH]c2C)C(O)C(C)(C)CC1=O (stereo not given)	99 to 101
ICc1nc(-c2ccc3c(c2)OCO3)c2cc3c(cc2n1)OCO3	155 to 160

Now from value to compound:

melting point [°C]	Compound
96 to 98	OCc1cc(OCc2ccc(C(F)(F)F)cc2)ccn1
153 to 154	CCN(CC)CCOC(=O)c1cnc2ccn(-c3cccc(Cl)c3)n2c1=O
61 to 63	Cc1nc(-c2cccc(C(F)(F)F)c2)ccc1C=O
206 to 208	CC(C)Oc1ccc2nc[nH]c(=O)c2c1
172 to 174	O=c1c2cc(F)c(N3CCCC3)nc2n(-c2ccc(F)cc2)c(=O)n1O
115 to 117	CCc1ncc(CCCOc2ccc(-c3nnn(C)n3)cc2)n1C
195 to 197	CNC(=O)c1cc2ccc3c(c2c(-c2ccc(OC(F)(F)F)cc2)c1CO)OCO3
134 to 136	O=C1N(CCCCN2CCN(c3cn(-c4ccc(F)cc4)c4ccccc34)CC2)CSC12CCCCC2
194 to 197	CONC(=O)c1cnn(-c2ccccc2)c1Br
156	Nc1ccc2oc(-c3ccccc3)cc2c1
152 to 154	Cn1nc(-c2cc(C(C)(C)C)c(O)c(C(C)(C)C)c2)c2cccnc21
228 to 231	COCCc1nc2c(N)nc3cc(Br)ccc3c2n1CCCN1CCCC1=O
198 to 200	Cc1ccc(O)cc1C(CCC(=O)O)Oc1cc(OCc2cccnc2)ccc1C#N (racemic)
135	CCCCN(CCCC)CCCOc1ccc(C(=O)c2c(C)oc3c(NS(C)(=O)=O)cccc23)cc1
171 to 174	Clc1ccc(-c2cc(C3CCN(Cc4ccc(Cl)c(Cl)c4)CC3)n[nH]2)cc1
176 to 178	CS(=O)(=O)NCCCn1c(CCCOc2ccccc2)nc2c(N)nc3ccccc3c21
> 310	Cc1cccc(-c2c(C(N)=O)n(C)c(=O)c3ncccc23)c1
57 to 58	Sc1c(Cl)ccc(Cl)c1S
269 to 271	CCOc1ccc(-c2ccc3c(c2)C=C(C(=O)O)CCO3)cc1
93 to 95	COC(=O)C(=Cc1cc(OC)cc(OC)c1)c1ccc(Oc2ccc(CO)cc2)cc1

melting point [°C]	Compound
154 to 155	N#CCCNC(=O)c1cccc(-c2cccc3cc(Cc4cccc(C(F)(F)F)c4)oc23)c1
107 to 108	CSc1ncc2c(Cl)ccn2n1
107 to 109	CCCCC(=O)NC1CCN(CCNC(=O)c2nn(C(C)C)c3ccccc23)CC1
124 to 125	COc1cccc(OC)c1CN1CC2CCCN2c2ccccc21 (stereo not given)
189 to 191	O=C(C=Cc1cncc(O)c1)NCCCN1CCN(C(c2ccccc2)c2ccccc2)CC1
45 to 47	CC(=O)Nc1c(Cl)cnn1-c1c(F)c(F)c(C(F)(F)F)c(F)c1F
159	Cn1ncc2c(=O)n3c(nc21)SC(c1ccccc1)C3c1ccccc1 (stereo not given)
91	COC(=O)c1cc(-c2cccs2)cc(C)c1NS(=O)(=O)c1ccc(OC)cc1
169 to 170	COC(=O)c1nc(-c2ccc(Cl)c(OC)c2F)c(F)c(N)c1Cl
96 to 98	COc1ccc(C(=O)Nc2c(Cl)cc(C=O)cc2Cl)cc1OC1CCCC1
84 to 86	Oc1cc(-n2cc3c(n2)CCCC3)c(Cl)cc1Cl
82 to 84.5	CC(C)SCCOc1ccc(COc2cnn(C(C)(C)C)c(=O)c2Cl)cc1
73.5 to 74.5	CCOC(=O)/C=C/c1ccc(OCOC)cc1Oc1ncc(C(F)(F)F)cc1Cl
106 to 108	COCn1cc(C(=O)c2ccccc2)c(-c2cccc(Cl)c2)n1
150 to 151	Cc1cc2c(s1)CCCc1cc(=O)n(-c3ccc(Cl)cc3)nc1-2
130 to 132	O=C(Nc1ccc(C(F)(F)F)cc1)c1cccc(Oc2cccc(C(F)(F)F)c2)n1
241 to 243	COc1cc2c(Nc3ccc(Cl)cc3F)c(C#N)cnc2cc1OCc1ccccc1
191 to 193	COc1cc2c(cc1-c1nc3cc(Cl)ccc3o1)oc1ccccc12
169 to 171	Cc1cc(CN2C(=O)C3(COc4cc5c(cc43)OCO5)c3ccccc32)c(C)n1C(C)C (stereo not given)
266	CN(C(=O)Nc1ccsc1)c1cccc2cc(-c3nccs3)[nH]c12

melting point [°C]	Compound
70 to 76	COc1cc(Oc2cccc(SC(F)(F)F)c2)nc(C(=O)NC(C)C)c1
162 to 164	Cc1ccc(C#N)c(Nc2ccccc2[N+](=O)[O-])c1
296 to 297	Cc1ccc(-c2ccc3c(c2)C=C(C(=O)O)CC(c2ccccc2)O3)cc1 (stereo not given)
134 to 135	O=C(N[C@H](Cc1ccc(C(F)(F)F)cc1)[C@H](O)c1ccc(F)cc1)c1cccc2ccccc12 (racemic)
188 to 190	N#Cc1c(N2CCCCC2)cc(-c2cccc3ccccc23)c2c1-c1ccccc1C2
132 to 134	O=C(c1ccccc1)N1CCN(c2c(Cl)cncc2Cl)CC1
121	CCOC(=O)C1=C(N2CCCC2)N=C(C)C(C(=O)OCC)C1c1cccc2ccccc12 (stereo not given)
98 to 99	CCOc1nn(-c2cc(C(F)(F)F)ccn2)cc1CCCOc1cccc(OC(C)(C)C(=O)O)c1
47 to 52	COc1ccc(OC)c(-c2ccc(C(C)=NOCCOc3ccc(CC4SC(=O)NC4=O)cc3)cc2)c1 (stereo not given)
233 to 235	CC1=C(C(=O)OCCOc2ccccc2)C(c2cccc(Cl)c2C)C2=C(CNCC2=O)N1 (stereo not given)
86 to 87	Cc1cc(C#Cc2ccc(F)cc2)nc(Oc2cc(C(F)(F)F)nn2C)c1
119 to 121	CCC(=O)NCC1CC1c1c(Br)ccc2nn(C)cc12 (stereo not given)
190 to 191	CCCCc1nc2c(N)nc3cccnc3c2n1CCCCN1CC=Cc2cc(C(N)=O)ccc21
206 to 207	O=C1NCCN1CCNc1cc(-c2ccncc2)c(-c2ccccc2)nn1
188 to 189	CCC(CC)c1ccc(OC)c2nc(Nc3c(C)cc(Cl)cc3OC)n(C)c12
195 to 197	NC(=O)c1ccc(NC(=O)C(CS)Cc2ccccc2)cc1 (stereo not given)
194 to 196	CCOC(=O)c1cc(-n2c(=O)[nH]c3c(c2=O)CSC3)ccc1Cl
218 to 222	O=C(O)c1nc2n(n1)-c1cc(Cl)ccc1N(c1ccc(Cl)cc1Cl)C2
210 to 213	O=C(Nc1cccc2c(CBr)c(Br)cnc12)c1c(Cl)cccc1Cl
231 to 232	O=C(O)CCCCOc1ccccc1C1(c2ccccc2)NC(=O)NC1=O (stereo not given)
